Here are results for 36 compounds from patent US9238619B2, “Phenalkylamine derivatives, pharmaceutical compositions containing them, and their use in therapy” (AbbVie Deutschland GmbH & Co. KG, priority 2010, dated 2016).

Structures can show the parent of a compound that is named as a salt.

The target in this test is human GlyT1c transporter (Homo sapiens (Human), UniProt P48067). Briefly: Radioligand binding assays using recombinant CHO cell membranes expressing human GlyT1. Particulars: read-out: radioligand binding Kiapp. The protocol: Radioligand binding to human GlyT1c transporter-expressing membranes was determined as described in Mezler et al., Molecular Pharmacology 74:1705-1715, 2008.
Sequence of human GlyT1c transporter (P48067 whole entry): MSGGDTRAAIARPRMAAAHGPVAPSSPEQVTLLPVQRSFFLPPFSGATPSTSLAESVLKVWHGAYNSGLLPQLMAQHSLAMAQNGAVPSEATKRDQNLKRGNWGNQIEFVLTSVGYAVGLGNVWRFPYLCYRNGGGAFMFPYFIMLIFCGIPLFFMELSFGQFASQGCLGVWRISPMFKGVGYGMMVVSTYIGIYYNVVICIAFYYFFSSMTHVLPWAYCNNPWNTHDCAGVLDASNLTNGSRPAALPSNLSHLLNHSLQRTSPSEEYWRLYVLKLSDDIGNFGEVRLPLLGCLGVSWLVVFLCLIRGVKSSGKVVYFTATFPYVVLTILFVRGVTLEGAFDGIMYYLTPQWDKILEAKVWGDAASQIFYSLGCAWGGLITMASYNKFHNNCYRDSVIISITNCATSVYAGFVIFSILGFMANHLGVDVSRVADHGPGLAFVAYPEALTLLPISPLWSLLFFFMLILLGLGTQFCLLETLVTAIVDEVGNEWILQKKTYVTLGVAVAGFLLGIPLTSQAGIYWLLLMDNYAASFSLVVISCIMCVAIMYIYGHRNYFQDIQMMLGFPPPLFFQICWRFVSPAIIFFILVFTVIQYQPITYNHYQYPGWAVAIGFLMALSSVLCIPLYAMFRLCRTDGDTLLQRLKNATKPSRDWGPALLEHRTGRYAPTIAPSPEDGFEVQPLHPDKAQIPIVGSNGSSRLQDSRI
`Cn1cc(S(=O)(=O)NCc2cccc(C(Cc3ccccc3)CN3CCC3)c2)cn1` (stereo not drawn) [Example 37, 1-Methyl-1H-pyrazole-4-sulfonic acid 3-(2-azetidin-1-yl-1-benzyl-ethyl)benzylamide, hydrochloride]: the Ki is ≤ 1000 nM. For `CN1CCCC(Cc2ccccc2)(c2cccc(OCCNS(=O)(=O)c3cn(C)cn3)c2)C1` (stereo not drawn) [Example 62, 1-Methyl-1H-imidazole-4-sulfonic acid {2-[3-(3-benzyl-1-methyl-piperidin-3-yl)-phenoxy]-ethyl}-amide], the Ki was ≤ 100 nM. As for `CN(Cc1cccc(C(CNC(=O)OC(C)(C)C)C2(c3ccc(Cl)cc3)CCC2)c1)S(=O)(=O)c1cn(C)cn1` (stereo not drawn) [Example 41, tert-Butyl {2-[1-(4-chlorophenyl)cyclobutyl]-2-[3-({methyl[(1-methyl-1H-imidazol-4-yl)sulfonyl]amino}methyl)phenyl]ethyl}carbamate], the Ki was ≤ 10000 nM. In the case of `Cn1cc(S(=O)(=O)NCCOc2cccc(C(CN)Cc3cccc(C(F)(F)F)c3)c2)cn1` (stereo not drawn) [Example 10, 1-Methyl-1H-pyrazole-4-sulfonic acid (2-{3-[2-amino-1-(3-trifluoromethylbenzyl)-ethyl]-phenoxy}-ethyl)-amide, hydrochloride], the Ki was ≤ 100 nM. The figure for `Cn1cnc(S(=O)(=O)NCCOc2cccc(C3(Cc4ccccc4)CNC(=O)C3)c2)c1` (stereo not drawn) [Example 56, 1-Methyl-1H-imidazole-4-sulfonic acid {2-[3-(3-benzyl-5-oxo-pyrrolidin-3-yl)-phenoxy]-ethyl}-amide] is ≤ 1000 nM; for `Cn1cnc(S(=O)(=O)NCCOc2cc(C(CN)Cc3ccccc3)ccc2F)c1` (stereo not drawn) [Example 4, 1-Methyl-1H-imidazole-4-sulfonic acid {2-[5-(2-amino-1-benzyl-ethyl)-2-fluoro-phenoxy]-ethyl}-amide, hydrochloride] it is ≤ 100 nM; for `Cn1cc(S(=O)(=O)NCCOc2cc(C(CN)Cc3ccccc3)ccc2F)cn1` (stereo not drawn) [Example 3, 1-Methyl-1H-pyrazole-4-sulfonic acid {2-[5-(2-amino-1-benzyl-ethyl)-2-fluoro-phenoxy]-ethyl}-amide, hydrochloride] it is ≤ 100 nM. On to `Cn1cc(S(=O)(=O)NCCOc2cccc(C3(Cc4ccccc4)CNC3)c2)cn1` [Example 50, 1-Methyl-1H-pyrazole-4-sulfonic acid {2-[3-(3-benzyl-azetidin-3-yl)-phenoxy]-ethyl}-amide], for which the Ki was ≤ 100 nM. Take `Cn1cc(S(=O)(=O)NCc2cccc(C3(Cc4ccccc4)CCNC3)c2)cn1` (stereo not drawn) [Example 67, 1-Methyl-1H-pyrazole-4-sulfonic acid 3-(3-benzyl-pyrrolidin-3-yl)benzylamide]: the Ki is ≤ 100 nM. As for `Cn1cc(S(=O)(=O)NCc2cccc(C3(Cc4ccccc4)CNC(=O)C3)c2)cn1` (stereo not drawn) [Example 66, 1-Methyl-1H-pyrazole-4-sulfonic acid 3-(3-benzyl-5-oxo-pyrrolidin-3-yl)benzylamide], the Ki was ≤ 10000 nM. Next, `O=S(=O)(CC1CC1)NCc1cccc(C(Cc2ccccc2)CN2CCOCC2)c1` (stereo not drawn) [Example 22, N-[3-(1-Benzyl-2-morpholin-4-yl-ethyl)-benzyl]-C-cyclopropyl-methanesulfonamide, hydrochloride]: ≤ 10000 nM; `CCOC(=O)N1CC(Cc2ccccc2)(c2cccc(OCCNS(=O)(=O)c3cn(C)cn3)c2)C1` [Example 47, 3-Benzyl-3-{3-[2-(1-methyl-1H-imidazole-4-sulfonylamino)-ethoxy]-phenyl}-azetidine-1-carboxylic acid ethyl ester]: ≤ 1000 nM; `Cn1cnc(S(=O)(=O)NCCOc2cccc(C(Cc3ccccc3)CN3CCCC3)c2)c1` (stereo not drawn) [Example 35, 1-Methyl-1H-imidazole-4-sulfonic acid {2-[3-(1-benzyl-2-pyrrolidin-1-yl-ethyl)phenoxy]-ethyl}-amide]: ≤ 1000 nM. With `Cn1cnc(S(=O)(=O)NCc2cccc(C(Cc3ccccc3)C(N)=O)c2)c1` (stereo not drawn) [Example 16, 2-{3-[(1-Methyl-1H-imidazole-4-sulfonylamino)-methyl]-phenyl}-3-phenyl-propionamide], the Ki is ≤ 10000 nM. `Cn1cc(S(=O)(=O)NCCOc2cccc(C(Cc3ccccc3)CN3CCC3)c2)cn1` (stereo not drawn) [Example 36]: the Ki was ≤ 1000 nM. The figure for `CN1CCCC(Cc2ccccc2)(c2cccc(OCCNS(=O)(=O)c3cnn(C)c3)c2)C1` (stereo not drawn) [Example 63, 1-Methyl-1H-pyrazole-4-sulfonic acid {2-[3-(3-benzyl-1-methyl-piperidin-3-yl)phenoxy]-ethyl}-amide] is ≤ 100 nM; for `CCCS(=O)(=O)N(C)Cc1cccc(C(CNC(=O)OC(C)(C)C)C2(c3ccc(Cl)cc3)CCC2)c1` (stereo not drawn) [Example 40, tert-Butyl {2-[1-(4-chlorophenyl)cyclobutyl]-2-(3-{[methyl(propylsulfonyl)amino]methyl}phenyl)ethyl}carbamate] it is ≤ 10000 nM; for `CN1CCC(Cc2ccccc2)(c2cccc(OCCNS(=O)(=O)c3cn(C)cn3)c2)C1` (stereo not drawn) [Example 70, 1-Methyl-1H-imidazole-4-sulfonic acid {2-[3-(3-benzyl-1-methyl-pyrrolidin-3-yl)-phenoxy]-ethyl}-amide] it is ≤ 100 nM. Take `Cn1cc(S(=O)(=O)NCc2cccc(C(Cc3ccccc3)CN3CCOCC3)c2)cn1` (stereo not drawn) [Example 21, 1-Methyl-1H-pyrazole-4-sulfonic acid 3-(1-benzyl-2-morpholin-4-yl-ethyl)benzylamide]: the Ki was ≤ 1000 nM. As to `CN(Cc1cccc(C(CN)C2(c3ccc(Cl)cc3)CCC2)c1)S(=O)(=O)c1cnn(C)c1` (stereo not drawn) [Example 45, N-(3-{2-Amino-1-[1-(4-chlorophenyl)cyclobutyl]ethyl}benzyl)-N,1-dimethyl-1H-pyrazole-4-sulfonamide hydrochloride], the Ki was ≤ 10000 nM.

On to `Cn1cnc(S(=O)(=O)NCCOc2cccc(C(CN)Cc3ccccc3)c2)c1` (stereo not drawn) [Example 5, 1-Methyl-1H-imidazole-4-sulfonic acid {2-[3-(2-amino-1-benzyl-ethyl)phenoxy]-ethyl}-amide], for which the Ki was ≤ 100 nM. Take `CN(C)CC(Cc1ccccc1)c1ccc(F)c(OCCNS(=O)(=O)c2cnn(C)c2)c1` (stereo not drawn) [Example 31, 1-Methyl-1H-pyrazole-4-sulfonic acid {2-[5-(1-benzyl-2-dimethylamino-ethyl)-2-fluoro-phenoxy]-ethyl}-amide]: the Ki is ≤ 100 nM. In the case of `CN(C)CC(Cc1cccc(C(F)(F)F)c1)c1cccc(OCCNS(=O)(=O)c2cnn(C)c2)c1` (stereo not drawn) [Example 28, 1-Methyl-1H-pyrazole-4-sulfonic acid (2-{3-[2-dimethylamino-1-(3-trifluoromethyl-benzyl)-ethyl]-phenoxy}-ethyl)-amide], the Ki was ≤ 100 nM. In the case of `Cn1cnc(S(=O)(=O)NCCOc2cccc(C3(Cc4ccccc4)CCN(CCF)C3)c2)c1` (stereo not drawn) [Example 75], the Ki is ≤ 100 nM. On to `CN(C)CC(Cc1ccccc1)c1cccc(OCCNS(=O)(=O)c2cnn(C)c2)c1` (stereo not drawn) [Example 24, 1-Methyl-1H-pyrazole-4-sulfonic acid {2-[3-(1-benzyl-2-dimethylamino-ethyl)phenoxy]-ethyl}-amide], for which the Ki was ≤ 100 nM. On to `O=S(=O)(CC1CC1)NCCOc1cccc(C2(Cc3ccccc3)CNC2)c1` [Example 49, N-{2-[3-(3-Benzyl-azetidin-3-yl)-phenoxy]-ethyl}-C-cyclopropyl-methane sulfonamide], for which the Ki is ≤ 1000 nM. With `Cn1cnc(S(=O)(=O)NCCOc2cccc(C3(Cc4ccccc4)CNC3)c2)c1` [Example 51, 1-Methyl-1H-imidazole-4-sulfonic acid {2-[3-(3-benzyl-azetidin-3-yl)phenoxy]-ethyl}-amide], the Ki was ≤ 100 nM. The figure for `Cn1cnc(S(=O)(=O)NCCOc2cccc(C3(Cc4ccccc4)CCN(CC(C)(C)C)C3)c2)c1` (stereo not drawn) [Example 76, 1-Methyl-1H-imidazole-4-sulfonic acid (2-{3-[3-benzyl-1-(2,2-dimethylpropyl)-pyrrolidin-3-yl]-phenoxy}-ethyl)-amide] is ≤ 100 nM; for `NCC(Cc1ccccc1)c1cccc(CNS(=O)(=O)CC2CC2)c1` (stereo not drawn) [Example 14, N-[3-(2-Amino-1-benzyl-ethyl)-benzyl]-C-cyclopropyl-methanesulfonamide] it is ≤ 10000 nM; for `Cn1cnc(S(=O)(=O)NCCOc2cccc(C3(Cc4ccccc4)CCN(C(=O)C(F)F)C3)c2)c1` (stereo not drawn) [Example 71, 1-Methyl-1H-imidazole-4-sulfonic acid (2-{3-[3-benzyl-1-(2,2-difluoro-acetyl)pyrrolidin-3-yl]-phenoxy}-ethyl)-amide] it is ≤ 1000 nM.

Turning to `Cn1cc(S(=O)(=O)NCCOc2cccc(C(CN)Cc3ccc(Cl)cc3)c2)cn1` (stereo not drawn) [Example 8, 1-Methyl-1H-pyrazole-4-sulfonic acid (2-{3-[2-amino-1-(4-chloro-benzyl)ethyl]-phenoxy}-ethyl)-amide, hydrochloride], the Ki was ≤ 1000 nM. Regarding `Cn1cc(S(=O)(=O)NCc2cccc(C(CN)Cc3ccccc3)c2)cn1` (stereo not drawn) [Example 18, 1-Methyl-1H-pyrazole-4-sulfonic acid 3-(2-amino-1-benzyl-ethyl)benzylamide, hydrochloride], the Ki is ≤ 100 nM.

For the compound `CN(C)CC(Cc1ccccc1)c1cc(OCCNS(=O)(=O)c2cnn(C)c2)ccc1F` (stereo not drawn) [Example 33, 1-Methyl-1H-pyrazole-4-sulfonic acid {2-[3-(1-benzyl-2-dimethylamino-ethyl)-4-fluoro-phenoxy]-ethyl}-amide], the Ki was ≤ 100 nM. For `Cn1cc(S(=O)(=O)NCCOc2cccc(C3(Cc4ccccc4)CCNC3)c2)cn1` (stereo not drawn) [Example 60, 1-Methyl-1H-pyrazole-4-sulfonic acid {2-[3-(3-benzyl-pyrrolidin-3-yl)phenoxy]-ethyl}-amide], the Ki is ≤ 100 nM. In the case of `CN(Cc1cccc(C(CN)C2(c3ccc(Cl)cc3)CCC2)c1)S(=O)(=O)c1cn(C)cn1` (stereo not drawn) [Example 44, N-(3-{2-Amino-1-[1-(4-chlorophenyl)cyclobutyl]ethyl}benzyl)-N,1-dimethyl-1H-imidazole-4-sulfonamide hydrochloride], the Ki is ≤ 10000 nM. Take `Cn1cc(S(=O)(=O)NCCOc2cccc(C(CN)Cc3ccccc3)c2)cn1` (stereo not drawn) [Example 6, 1-Methyl-1H-pyrazole-4-sulfonic acid {2-[3-(2-amino-1-benzyl-ethyl)-phenoxy]-ethyl}-amide, hydrochloride]: the Ki was ≤ 100 nM.
